Our source for the IC50 values is patent publication US20260008787A1, “FUSED RING KRAS INHIBITORS FOR TREATING DISEASE” (BLOSSOMHILL THERAPEUTICS, INC., priority 2022, published 2026).

Test [1] concerns GP2D (KRAS G12D). Put plainly: Cell proliferation assay (CellTiter-Glo, 72 hours), GP2D. Format: cell-based. As to conditions: 384-well, CellTiter-Glo 2.0. How it is done:
(§1) Two thousand KRAS mutant cells per well were seeded in 384-well white plate and then treated with indicated compounds for 72 hours at 37° C. and 5% CO2. Cell proliferation was measured using CellTiter-Glo 2.0 luciferase-based ATP detection assay (Promega, Madison, WI) following the manufacturer's protocol. IC50 values were determined using Prism software (GraphPad Software, San Diego, CA).
On the technique in general: ATP-based viability assays read luminescence as a measure of living cells.

Test [2] has as its system SW620 (KRAS G12V). Put plainly: Cell proliferation assay (CellTiter-Glo, 72 hours), SW620. As to conditions: Homo sapiens, SW-620, 72 h, 384-well, CellTiter-Glo 2.0. The test is classed as cell-based. As for the experimental part: as §1
In test [3] the test system is AGS (G12D). Put plainly: Cell proliferation assay (CellTiter-Glo, 72 hours), AGS. The test is classed as cell-based. As to conditions: 72 h, 384-well, CellTiter-Glo 2.0. How it is done: as §1
For test [4], the target named is KRAS G12D (Homo sapiens, UniProt P01116, G12D). Put plainly: biochemical.
Chain of KRAS G12D (P01116 1-188 isoform P01116-2 G12D): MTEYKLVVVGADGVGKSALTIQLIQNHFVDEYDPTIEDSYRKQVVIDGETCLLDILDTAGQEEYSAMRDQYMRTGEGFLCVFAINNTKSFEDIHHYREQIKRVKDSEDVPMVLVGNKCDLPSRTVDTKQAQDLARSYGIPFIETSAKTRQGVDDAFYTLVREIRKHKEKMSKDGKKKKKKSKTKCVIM
For test [5], the target named is KRAS G12V (Homo sapiens, UniProt P01116, G12V). Put plainly: biochemical.
Chain of KRAS G12V (P01116 1-188 isoform P01116-2 G12V): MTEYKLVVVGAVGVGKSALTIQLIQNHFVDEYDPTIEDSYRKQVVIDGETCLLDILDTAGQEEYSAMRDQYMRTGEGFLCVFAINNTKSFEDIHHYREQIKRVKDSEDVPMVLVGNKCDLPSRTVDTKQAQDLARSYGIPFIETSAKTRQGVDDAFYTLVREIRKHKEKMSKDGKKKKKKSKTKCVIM

`C#Cc1c(F)ccc2cc(O)cc(-c3nc4c5c(nc(OC[C@@]67CCCN6C[C@H](F)C7)nc5c3F)N3CC=CC[C@H]3CO4)c12` [Example 106, 5-ethynyl-6-fluoro-4-[(7S)-13-fluoro-16-[[(2R,8S)-2-fluoro-1,2,3,5,6,7-hexahydropyrrolizin-8-yl]methoxy]-9-oxa-2,11,15,17-tetrazatetracyclo [8.7.1.0^2,7.0^14,18]octadeca-1 (17),4,10 (18),11,13,15-hexaen-12-yl]naphthalen-2-ol]: the IC50 in test [1] (GP2d, 72 h) worked out at 14.6 nM; in test [2], 64.5 nM; in test [3] it was 48.8 nM; in test [4], 3.26 nM; in test [5], 3.83 nM.
As for `C#Cc1c(F)ccc2cc(O)cc(-c3nc4c5c(nc(OC[C@@]67CCCN6C/C(=C\F)C7)nc5c3F)N3CCCC[C@H]3CO4)c12` [Example 52, 5-ethynyl-6-fluoro-4-[(8aS)-4-fluoro-2-{[(2Z,7aS)-2-(fluoromethylidene)tetrahydro-1H-pyrrolizin-7a(5H)-yl]methoxy}-8,8a,9,10,11,12-hexahydro-7-oxa-1,3,6,12a-tetraazabenzo[4,5]cyclohepta[1,2,3-de]naphthalen-5-yl]naphthalen-2-ol], the concentration for half-maximal inhibition (IC50) in test [1] (GP2d, 72 h) is 1.75 nM; in test [2] it was 9.2 nM; in test [3], 7.7 nM; in test [4] it was 2.26 nM; in test [5], 2.22 nM.
Taken in the same sequence, the figures for `CC[C@H]1COc2nc(-c3cc(O)cc4ccc(F)c(Cl)c34)c(F)c3nc(OC[C@@]45CCCN4C[C@H](F)C5)nc(c23)N1C` [Example 111, 5-chloro-4-[(9S)-9-ethyl-4-fluoro-2-{[(2R,7aS)-2-fluorotetrahydro-1H-pyrrolizin-7a(5H)-yl]methoxy}-10-methyl-9,10-dihydro-8H-7-oxa-1,3,6,10-tetraazacyclohepta[1,2,3-de]naphthalen-5-yl]-6-fluoronaphthalen-2-ol] were 59.7 nM, 499 nM, 361 nM, 1.28 nM and 1.41 nM.
As to `CCc1c(F)ccc2cc(O)cc(-c3nc4c5c(nc(OC[C@@]67CCCN6C[C@H](F)C7)nc5c3F)N3CCCC(O)C3CO4)c12` (stereo partly drawn) [Example 119, 5-(8-ethyl-7-fluoro-3-hydroxynaphthalen-1-yl)-4-fluoro-2-{[(2R,7aS)-2-fluorotetrahydro-1H-pyrrolizin-7a(5H)-yl]methoxy}-8,8a,9,10,11,12-hexahydro-7-oxa-1,3,6,12a-tetraazabenzo[4,5]cyclohepta[1,2,3-de]naphthalen-9-ol], the concentration for half-maximal inhibition (IC50) in test [1] (GP2d, 72 h) stood at 103 nM; in test [2], 307 nM; in test [3], 258 nM; in test [4], 2.48 nM; in test [5] it was 2.16 nM.
For the compound `C#Cc1c(F)ccc2cc(O)cc(-c3nc4c5c(nc(OC[C@@]67CCCN6C[C@H](F)C7)nc5c3F)N(C)[C@@H](CC)CO4)c12` [Example 96, 4-[(9S)-9-ethyl-4-fluoro-2-{[(2R,7aS)-2-fluorotetrahydro-1H-pyrrolizin-7a(5H)-yl]methoxy}-10-methyl-9,10-dihydro-8H-7-oxa-1,3,6,10-tetraazacyclohepta[1,2,3-de]naphthalen-5-yl]-5-ethynyl-6-fluoronaphthalen-2-ol], the 50% inhibitory concentration (IC50) in test [1] (GP2d, 72 h) amounted to 16.8 nM; in test [2], 92.6 nM; in test [3], 82.9 nM; in test [4], 2.39 nM; in test [5] it was 2.46 nM.
`C#Cc1c(F)ccc2cc(O)cc(-c3nc4c5c(nc(OC[C@@]67CCCN6C[C@H](F)C7)nc5c3F)N3CCCCC3CC4)c12` (stereo partly drawn) [Example 121, 5-ethynyl-6-fluoro-4-(4-fluoro-2-{[(2R,7aS)-2-fluorotetrahydro-1H-pyrrolizin-7a(5H)-yl]methoxy}-8,8a,9,10,11,12-hexahydro-7H-1,3,6,12a-tetraazabenzo[4,5]cyclohepta[1,2,3-de]naphthalen-5-yl)naphthalen-2-ol]: the IC50 in test [1] (GP2d, 72 h) stood at 3.67 nM; in test [2], 16.6 nM; in test [3] it was 21.5 nM; in test [4], 1.74 nM; in test [5] it was 1.99 nM.
Turning to `C#Cc1c(F)ccc2cc(O)cc(-c3nc4c5c(nc(OCC67CCCN6C/C(=C/F)C7)nc5c3F)N3CCCC[C@H]3CO4)c12` (stereo partly drawn) [Example 79, 5-ethynyl-6-fluoro-4-[(8aS)-4-fluoro-2-{[(2E)-2-(fluoromethylidene)tetrahydro-1H-pyrrolizin-7a(5H)-yl]methoxy}-8,8a,9,10,11,12-hexahydro-7-oxa-1,3,6,12a-tetraazabenzo[4,5]cyclohepta[1,2,3-de]naphthalen-5-yl]naphthalen-2-ol], the concentration for half-maximal inhibition (IC50) in test [1] (GP2d, 72 h) amounted to 2.26 nM; in test [2] it was 11.2 nM; in test [3] it was 3.33 nM; in test [4] it was 1.65 nM; in test [5], 1.69 nM.
In the case of `N#Cc1c(N)sc2c(F)ccc(-c3nc4c5c(nc(OC[C@@]67CCCN6C[C@H](F)C7)nc5c3F)N3CCCC[C@H]3CO4)c12` [Example 85, 2-amino-7-fluoro-4-[(8aS)-4-fluoro-2-{[(2R,7aS)-2-fluorotetrahydro-1H-pyrrolizin-7a(5H)-yl]methoxy}-8,8a,9,10,11,12-hexahydro-7-oxa-1,3,6,12a-tetraazabenzo[4,5]cyclohepta[1,2,3-de]naphthalen-5-yl]-1-benzothiophene-3-carbonitrile], the IC50 in test [1] (GP2d, 72 h) stood at 143 nM; in test [2], 820 nM; in test [3], 631 nM; in test [4], 2.35 nM; in test [5], 2.17 nM.
`C#Cc1c(F)ccc2cc(O)cc(-c3nc4c5c(nc(OC[C@@]67CCCN6C[C@H](F)C7)nc5c3F)N3CCCC(O4)C3CO)c12` (stereo partly shown) [Example 104]: the IC50 in test [1] (GP2d, 72 h) amounted to 188 nM; in test [2], 903 nM; in test [3], 666 nM; in test [4], 7.51 nM; in test [5], 9.01 nM.
As to `Fc1c(-c2c(Cl)ccc3[nH]nc(Cl)c23)nc2c3c(nc(OC[C@@]45CCCN4C[C@H](F)C5)nc13)N1CCCC[C@H]1CO2` (atropisomer, axis not shown) [Example 83, (7S)-12-(3,5-dichloro-1H-indazol-4-yl)-13-fluoro-16-[[(2R,8S)-2-fluoro-1,2,3,5,6,6-4hexahydropyrrolizin-8-yl]methoxy]-9-oxa-2,11,15,17-tetrazatetracyclo[8.7.1.02,7.014,18]octadeca-1 (17),10 (18),11,13,15-pentaene], the half-inhibitory concentration (IC50) is 1080 nM in test [1]; > 3000 nM in test [2]; > 3000 nM in test [3]; 60.4 nM in test [4]; 59.3 nM in test [5].
In the case of `C#Cc1c(F)ccc2cc(O)cc(-c3nc4c5c(nc(OC[C@@]67CCCN6C[C@H](F)C7)nc5c3F)N(CC)[C@@H](C)CO4)c12` [Example 127, 4-[(9S)-10-ethyl-4-fluoro-2-{[(2R,7aS)-2-fluorotetrahydro-1H-pyrrolizin-7a(5H)-yl]methoxy}-9-methyl-9,10-dihydro-8H-7-oxa-1,3,6,10-tetraazacyclohepta[1,2,3-de]naphthalen-5-yl]-5-ethynyl-6-fluoronaphthalen-2-ol], the 50% inhibitory concentration (IC50) in test [1] (GP2d, 72 h) is 4.54 nM; in test [2], 9.86 nM; in test [3], 8.8 nM; in test [4] it was 2.61 nM; in test [5], 3.2 nM.
For the compound `C#Cc1c(F)ccc2cc(O)cc(-c3nc4c5c(nc(OC[C@@]67CCCN6C[C@H](F)C7)nc5c3F)N[C@@H](C)CO4)c12` [Example 46, 5-ethynyl-6-fluoro-4-[(9S)-4-fluoro-2-{[(2R,7aS)-2-fluorotetrahydro-1H-pyrrolizin-7a(5H)-yl]methoxy}-9-methyl-9,10-dihydro-8H-7-oxa-1,3,6,10-tetraazacyclohepta[1,2,3-de]naphthalen-5-yl]naphthalen-2-ol], the 50% inhibitory concentration (IC50) in test [1] (GP2d, 72 h) was found to be 74.8 nM; in test [2] it was 414 nM; in test [3], 193 nM; in test [4], 2.1 nM; in test [5] it was 1.71 nM.
With `C#Cc1c(F)ccc2cc(O)cc(-c3nc4c5c(nc(OC[C@@]67CCCN6C[C@H](F)C7)nc5c3F)N[C@@H](C3CCCO3)CO4)c12` (stereo partly drawn) [Example 126, 5-ethynyl-6-fluoro-4-((9R)-4-fluoro-2-(((2R,7aS)-2-fluorotetrahydro-1H-pyrrolizin-7a(5H)-yl)methoxy)-9-(tetrahydrofuran-2-yl)-9,10-dihydro-8H-7-oxa-1,3,6,10-tetraazacyclohepta[de]naphthalen-5-yl)naphthalen-2-ol], the concentration for half-maximal inhibition (IC50) in test [1] (GP2d, 72 h) is > 3000 nM; in test [2], 109 nM; in test [3] it was > 3000 nM; in test [4], 111 nM; in test [5], 30.2 nM.
For the compound `C#Cc1c(F)ccc2cc(O)cc(-c3nc4c5c(nc(OC[C@@]67CCCN6C[C@H](F)C7)nc5c3F)N3CCC[C@H](O)[C@@H]3CO4)c12` [compound 103, (8aS,9S)-5-(8-ethynyl-7-fluoro-3-hydroxynaphthalen-1-yl)-4-fluoro-2-{[(2R,7aS)-2-fluorotetrahydro-1H-pyrrolizin-7a(5H)-yl]methoxy}-8,8a,9,10,11,12-hexahydro-7-oxa-1,3,6,12a-tetraazabenzo[4,5]cyclohepta[1,2,3-de]naphthalen-9-ol], the half-inhibitory concentration (IC50) in test [1] (GP2d, 72 h) was 580 nM; in test [2] it was > 3000 nM; in test [3] it was 924 nM; in test [4] it was 22.4 nM; in test [5] it was 15.9 nM.

One may read the IC50 as the concentration that gives 50% inhibition. A lower IC50 goes with higher potency.
